Data published in patent US20070072831A1, “Integrase inhibitor compounds” (GILEAD SCIENCES, INC., priority 2005, published 2007).
Read-outs that look alike come from different tables or passages of the source.

Key:
HIV-IIIb = experiment: Antiviral assay in MT-4 cells infected with HIV-IIIb; format: cell-based; details: MT4, 120 h, read-out: EC50 Range MT-4
Description: See: Wolfe, etal J. Virol.
Antiviral Assays in MT2 and MT4 Cells
For the antiviral assay utilizing MT-2 cells, 50 μl of 2× test concentration of 5-fold serially diluted compound in culture medium with 10% FBS was added to each well of a 96-well plate (9 concentrations) in triplicate. MT-2 cells were infected with HIV-IIIb at a multiplicity of infection (m.o.i) of 0.01 for 3 hours. Fifty microliters of infected cell suspension in culture medium with 10% FBS (˜1.5×10^4 cells) was then added to each well containing 50 μl of diluted compound. The plates were then incubated at 37° C. for 5 days. For the antiviral assay utilizing MT-4 cells, 20 μl of 2× test concentration of 5-fold serially diluted compound in culture medium with 10% FBS was added to each well of a 384-well plate (7 concentrations) in triplicate. MT-4 cells were next mixed with HIV-IIIb at an m.o.i. of 0.1 and 20 μl of virus/cell mixture (˜2000 cells) was immediately added to each well containing 20 μl of diluted compound. The plates were then incubated at 37° C. for 5 days. After 5 days of incubation, 100 μl of CellTiter-Glo™ Reagent (catalog # G7571, Promega Biosciences, Inc., Madison, Wis.) was added to each well containing MT-2 cells and 40 μl to each well containing MT-4 cells. Cell lysis was carried out by incubating at room temperature for 10 min and then chemiluminescence was read.

HIV integrase = HIV integrase (Human immunodeficiency virus type 1 group M subtype B, UniProt P04585); experiment: biochemical

CN(c1c2c(c(O)c3ncccc13)C(=O)N(Cc1ccc(F)cc1)C2)S(N)(=O)=O [Compound 132, N-(7-(4-fluorobenzyl)-9-hydroxy-8-oxo-7,8-dihydro-6H-pyrrolo[3,4-g]quinolin-5-yl)-N-methylsulfamide]
EC50 (HIV-IIIb; MT-4 cells, HIV-IIIb, 5 days): < 60 nM | IC50 (HIV integrase): < 60 nM

O=C1c2c(c(N3CCCNC3=O)c3cccnc3c2O)CN1Cc1ccc(F)cc1 [Compound 222, 7-(4-fluorobenzyl)-9-hydroxy-5-(2-oxo-tetrahydropyrimidin-1(2H)-yl)-6,7-dihydropyrrolo[3,4-g]quinolin-8-one]
EC50 (HIV-IIIb; MT-4 cells, HIV-IIIb, 5 days): < 60 nM | IC50 (HIV integrase): 60 to 1000 nM

CN(c1c2c(c(OCOC(=O)OC3CCC3)c3ncccc13)C(=O)N(Cc1ccc(F)cc1)C2)S(C)(=O)=O [Compound 31, (7-(4-fluorobenzyl)-5-(N-methylmethan-5-ylsulfonamido)-8-oxo-7,8-dihydro-6H-pyrrolo[3,4-g]quinolin-9-yloxy)methyl cyclobutyl carbonate]
EC50 (HIV-IIIb; MT-4 cells, HIV-IIIb, 5 days): < 60 nM | IC50 (HIV integrase): > 1000 nM

CN1CCCN(c2c3c(c(O)c4ncccc24)C(=O)N(Cc2ccc(F)cc2)C3)C1=O [Compound 224, 7-(4-fluorobenzyl)-9-hydroxy-5-(3-methyl-2-oxo-tetrahydropyrimidin-1(2H)-yl)-6,7-dihydropyrrolo[3,4-g]quinolin-8-one]
EC50 (HIV-IIIb): 60 to 1000 nM | IC50 (HIV integrase): < 60 nM

CC1c2c(c(O)c3ncccc3c2N(C)S(C)(=O)=O)C(=O)N1Cc1ccc(F)cc1 (racemic) [Compound 74, N-(7-(4-fluorobenzyl)-9-hydroxy-6-(R and S)-methyl-8-oxo-7,8-dihydro-6H-pyrrolo[3,4-g]quinolin-5-yl)-N-methylmethanesulfonamide]
EC50 (HIV-IIIb; MT-4 cells, HIV-IIIb, 5 days): < 60 nM | IC50 (HIV integrase): < 60 nM

CN(c1c2c(c(O)c3ncccc13)C(=O)N(Cc1ccc(F)c(Cl)c1F)C2)S(C)(=O)=O [Compound 199, N-(7-(3-chloro-2,4-difluorobenzyl)-9-hydroxy-8-oxo-7,8-dihydro-6H-pyrrolo[3,4-g]quinolin-5-yl)-N-methylmethanesulfonamide]
EC50 (HIV-IIIb; MT-4 cells, HIV-IIIb, 5 days): < 60 nM | IC50 (HIV integrase): 60 to 1000 nM

CN(c1c2c(c(O)c3ncccc13)C(=O)N(Cc1ccc(F)cc1C#N)C2)S(C)(=O)=O [Compound 100, N-(7-(2-cyano-4-fluorobenzyl)-9-hydroxy-8-oxo-7,8-dihydro-6H-pyrrolo[3,4-g]quinolin-5-yl)-N-methylmethanesulfonamide]
EC50 (HIV-IIIb; MT-4 cells, HIV-IIIb, 5 days): 60 to 1000 nM | IC50 (HIV integrase): 60 to 1000 nM

CC(C)OC(=O)Oc1c2c(c(N(C)S(C)(=O)=O)c3cccnc13)CN(Cc1ccc(F)cc1)C2=O [Compound 34, 7-(4-fluorobenzyl)-5-(N-methylmethan-5-ylsulfonamido)-8-oxo-7,8-dihydro-6H-pyrrolo[3,4-g]quinolin-9-yl isopropyl carbonate]
EC50 (HIV-IIIb; MT-4 cells, HIV-IIIb, 5 days): < 60 nM | IC50 (HIV integrase): > 1000 nM

Cc1nc(C)c(S(=O)(=O)N(C)c2c3c(c(O)c4ncccc24)C(=O)N(Cc2ccc(F)cc2)C3)s1 [Compound 58, N-(7-(4-fluorobenzyl)-9-hydroxy-8-oxo-7,8-dihydro-6H-pyrrolo[3,4-g]quinolin-5-yl)-N,2,4-trimethylthiazole-5-sulfonamide]
EC50 (HIV-IIIb; MT-4 cells, HIV-IIIb, 5 days): < 60 nM | IC50 (HIV integrase): 60 to 1000 nM

CN(c1c2c(c(O)c3ncccc13)C(=O)N(Cc1ccc(F)c(F)c1)C2)S(C)(=O)=O [Compound 179, N-(7-(3,4-difluorobenzyl)-9-hydroxy-8-oxo-7,8-dihydro-6H-pyrrolo[3,4-g]quinolin-5-yl)-N-methylmethanesulfonamide]
EC50 (HIV-IIIb; MT-4 cells, HIV-IIIb, 5 days): < 60 nM | IC50 (HIV integrase): < 60 nM

O=C1c2c(c(N3CCNC3=O)c3cccnc3c2O)CN1Cc1ccc(F)cc1 [Compound 221, 7-(4-fluorobenzyl)-9-hydroxy-5-(2-oxoimidazolidin-1-yl)-6,7-dihydropyrrolo[3,4-g]quinolin-8-one]
EC50 (HIV-IIIb; MT-4 cells, HIV-IIIb, 5 days): < 60 nM | IC50 (HIV integrase): < 60 nM

CN(C)c1cccc2c(S(=O)(=O)N(C)c3c4c(c(O)c5ncccc35)C(=O)N(Cc3ccc(F)cc3)C4)cccc12 [Compound 154, 5-(dimethylamino)-N-(7-(4-fluorobenzyl)-9-hydroxy-8-oxo-7,8-dihydro-6H-pyrrolo[3,4-g]quinolin-5-yl)-N-methylnaphthalene-1-sulfonamide]
EC50 (HIV-IIIb; MT-4 cells, HIV-IIIb, 5 days): > 1000 nM | IC50 (HIV integrase): 60 to 1000 nM

CC(C)C(=O)N(C)c1c2c(c(O)c3ncccc13)C(=O)N(Cc1ccc(F)cc1)C2 [Compound 69, N-(7-(4-fluorobenzyl)-9-hydroxy-8-oxo-7,8-dihydro-6H-pyrrolo[3,4-g]quinolin-5-yl)-N-methylisobutyramide]
EC50 (HIV-IIIb; MT-4 cells, HIV-IIIb, 5 days): < 60 nM | IC50 (HIV integrase): < 60 nM

CN(c1c2c(c(O)c3ncccc13)C(=O)N(Cc1ccc(F)cc1)C2)S(=O)(=O)c1ccc(N2CCOCC2)nc1 [Compound 159, N-(7-(4-fluorobenzyl)-9-hydroxy-8-oxo-7,8-dihydro-6H-pyrrolo[3,4-g]quinolin-5-yl)-N-methyl-6-morpholinopyridine-3-sulfonamide]
EC50 (HIV-IIIb; MT-4 cells, HIV-IIIb, 5 days): 60 to 1000 nM | IC50 (HIV integrase): 60 to 1000 nM

CN(c1c2c(c(O)c3ncccc13)C(=O)N(Cc1ccc(F)cc1)C2)S(C)(=O)=O [Compound 29, N-(7-(4-fluorobenzyl)-9-hydroxy-8-oxo-7,8-dihydro-6H-pyrrolo[3,4-g]quinolin-5-yl)-N-methylmethanesulfonamide]
EC50 (HIV-IIIb; MT-4 cells, HIV-IIIb, 5 days): < 60 nM | IC50 (HIV integrase): < 60 nM

CN(c1c2c(c(O)c3ncccc13)C(=O)N(Cc1cc(Cl)cc(Cl)c1)C2)S(C)(=O)=O [Compound 193, N-(7-(3,5-dichlorobenzyl)-9-hydroxy-8-oxo-7,8-dihydro-6H-pyrrolo[3,4-g]quinolin-5-yl)-N-methylmethanesulfonamide]
EC50 (HIV-IIIb; MT-4 cells, HIV-IIIb, 5 days): < 60 nM | IC50 (HIV integrase): 60 to 1000 nM

CN(c1c2c(c(O)c3ncccc13)C(=O)N(Cc1ccc(F)cc1)C2)S(=O)(=O)CC(F)(F)F [Compound 156, 2,2,2-trifluoro-N-(7-(4-fluorobenzyl)-9-hydroxy-8-oxo-7,8-dihydro-6H-pyrrolo[3,4-g]quinolin-5-yl)-N-methylethane-1-sulfonamide]
EC50 (HIV-IIIb; MT-4 cells, HIV-IIIb, 5 days): 60 to 1000 nM | IC50 (HIV integrase): < 60 nM

CN(C)CCS(=O)(=O)N(C)c1c2c(c(O)c3ncccc13)C(=O)N(Cc1ccc(F)cc1)C2 [Compound 60, N-(7-(4-fluorobenzyl)-9-hydroxy-8-oxo-7,8-dihydro-6H-pyrrolo[3,4-g]quinolin-5-yl)-N-methyl-2-dimethylaminoethane-1-sulfonamide]
EC50 (HIV-IIIb; MT-4 cells, HIV-IIIb, 5 days): < 60 nM | IC50 (HIV integrase): < 60 nM

CN(Cc1ccncc1)S(=O)(=O)N(C)c1c2c(c(O)c3ncccc13)C(=O)N(Cc1ccc(F)cc1)C2 [Compound 136, N-(7-(4-fluorobenzyl)-9-hydroxy-8-oxo-7,8-dihydro-6H-pyrrolo[3,4-g]quinolin-5-yl)-N-methyl-N′-methyl-N′-(pyridin-4-ylmethyl)sulfamide]
EC50 (HIV-IIIb; MT-4 cells, HIV-IIIb, 5 days): 60 to 1000 nM | IC50 (HIV integrase): 60 to 1000 nM

CN(c1c2c(c(O)c3ncccc13)C(=O)N(Cc1ccncc1)C2)S(C)(=O)=O [Compound 92, N-(9-hydroxy-8-oxo-7-(pyridin-4-ylmethyl)-7,8-dihydro-6H-pyrrolo[3,4-g]quinolin-5-yl)-N-methylmethanesulfonamide]
EC50 (HIV-IIIb; MT-4 cells, HIV-IIIb, 5 days): > 1000 nM | IC50 (HIV integrase): > 1000 nM

CN(c1c2c(c(O)c3ncccc13)C(=O)N(Cc1ccc(F)cc1Cl)C2)S(C)(=O)=O [Compound 147, N-(7-(2-chloro-4-fluorobenzyl)-9-hydroxy-8-oxo-7,8-dihydro-6H-pyrrolo[3,4-g]quinolin-5-yl)-N-methylmethanesulfonamide]
EC50 (HIV-IIIb; MT-4 cells, HIV-IIIb, 5 days): < 60 nM | IC50 (HIV integrase): < 60 nM

O=C1c2c(c(N3CCNS3(=O)=O)c3cccnc3c2O)CN1Cc1ccc(F)cc1 [Compound 214]
EC50 (HIV-IIIb; MT-4 cells, HIV-IIIb, 5 days): < 60 nM | IC50 (HIV integrase): < 60 nM

CN(C(=O)N1CCOCC1)c1c2c(c(O)c3ncccc13)C(=O)N(Cc1ccc(F)cc1)C2 [Compound 173, N-(7-(4-fluorobenzyl)-9-hydroxy-8-oxo-7,8-dihydro-6H-pyrrolo[3,4-g]quinolin-5-yl)-N-methylmorpholine-4-carboxamide]
EC50 (HIV-IIIb; MT-4 cells, HIV-IIIb, 5 days): 60 to 1000 nM | IC50 (HIV integrase): 60 to 1000 nM

CN(c1c2c(c(O)c3ncccc13)C(=O)N(Cc1ccccn1)C2)S(C)(=O)=O [Compound 94, N-(9-hydroxy-8-oxo-7-(pyridin-2-ylmethyl)-7,8-dihydro-6H-pyrrolo[3,4-g]quinolin-5-yl)-N-methylmethanesulfonamide]
EC50 (HIV-IIIb; MT-4 cells, HIV-IIIb, 5 days): < 60 nM | IC50 (HIV integrase): 60 to 1000 nM

CN(c1c2c(c(O)c3ncccc13)C(=O)N(Cc1ccc(F)cc1)C2)S(=O)(=O)c1cn(C)cn1 [Compound 56, N-(7-(4-fluorobenzyl)-9-hydroxy-8-oxo-7,8-dihydro-6H-pyrrolo[3,4-g]quinolin-5-yl)-N,1-dimethyl-1 H-imidazole-4-sulfonamide]
EC50 (HIV-IIIb; MT-4 cells, HIV-IIIb, 5 days): < 60 nM | IC50 (HIV integrase): < 60 nM

CN(C)S(=O)(=O)Nc1c2c(c(O)c3ncccc13)C(=O)N(Cc1ccc(F)cc1)C2 [Compound 41, N-(7-(4-fluorobenzyl)-9-hydroxy-8-oxo-7,8-dihydro-6H-pyrrolo[3,4-g]quinolin-5-yl)-N′,N′-dimethylsulfamide]
EC50 (HIV-IIIb; MT-4 cells, HIV-IIIb, 5 days): < 60 nM | IC50 (HIV integrase): 60 to 1000 nM

CNC(=O)c1cc(F)ccc1CN1Cc2c(c(O)c3ncccc3c2N(C)S(C)(=O)=O)C1=O [Compound 88]
EC50 (HIV-IIIb; MT-4 cells, HIV-IIIb, 5 days): < 60 nM | IC50 (HIV integrase): 60 to 1000 nM
